In the Kinase Knowledgebase extract (Sharma et al. 2016):

Target: EGFR (human) (UniProt P00533)
Details: a431

Chain of EGFR (human) (P00533 whole entry, looked up): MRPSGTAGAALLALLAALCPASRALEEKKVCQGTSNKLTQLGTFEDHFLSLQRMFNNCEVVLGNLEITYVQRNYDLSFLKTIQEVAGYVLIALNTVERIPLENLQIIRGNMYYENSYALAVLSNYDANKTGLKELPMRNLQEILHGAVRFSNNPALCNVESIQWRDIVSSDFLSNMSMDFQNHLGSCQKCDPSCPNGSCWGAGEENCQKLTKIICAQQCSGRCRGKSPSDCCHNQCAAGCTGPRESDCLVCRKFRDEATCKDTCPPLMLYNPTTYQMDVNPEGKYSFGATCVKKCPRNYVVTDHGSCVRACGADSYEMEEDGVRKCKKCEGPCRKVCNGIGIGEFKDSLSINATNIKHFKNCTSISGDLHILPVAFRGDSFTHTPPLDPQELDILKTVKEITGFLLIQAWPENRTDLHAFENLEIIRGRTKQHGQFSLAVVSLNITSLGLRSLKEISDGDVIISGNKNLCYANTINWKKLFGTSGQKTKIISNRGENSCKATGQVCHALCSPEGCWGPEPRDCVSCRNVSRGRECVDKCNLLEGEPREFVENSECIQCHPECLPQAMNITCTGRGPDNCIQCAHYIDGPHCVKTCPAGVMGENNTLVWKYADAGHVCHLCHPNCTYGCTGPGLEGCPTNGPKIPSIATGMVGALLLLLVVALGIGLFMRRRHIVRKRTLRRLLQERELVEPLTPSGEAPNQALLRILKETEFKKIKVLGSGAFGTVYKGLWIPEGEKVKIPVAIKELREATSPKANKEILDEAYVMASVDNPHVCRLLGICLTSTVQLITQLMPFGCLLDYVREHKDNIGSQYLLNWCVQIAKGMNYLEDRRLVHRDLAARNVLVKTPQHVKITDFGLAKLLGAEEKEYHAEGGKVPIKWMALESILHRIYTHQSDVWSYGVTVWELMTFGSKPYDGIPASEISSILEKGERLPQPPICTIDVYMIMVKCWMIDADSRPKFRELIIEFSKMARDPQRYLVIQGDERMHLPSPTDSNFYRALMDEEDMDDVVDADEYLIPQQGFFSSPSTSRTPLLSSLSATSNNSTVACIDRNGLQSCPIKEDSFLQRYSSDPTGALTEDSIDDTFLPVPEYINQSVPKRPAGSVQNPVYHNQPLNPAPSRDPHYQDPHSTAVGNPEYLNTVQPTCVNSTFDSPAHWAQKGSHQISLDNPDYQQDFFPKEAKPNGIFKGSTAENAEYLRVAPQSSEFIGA

Compound	IC50 [µM]
Nc1nc(Nc2cccc(Br)c2)c2ccn(Cc3ccccc3Cl)c2n1	88.4
Nc1nc(Nc2cccc(Br)c2)c2ccn(Cc3ccccc3)c2n1	50.4
Nc1nc(Nc2cccc(Br)c2)c2ccn(Cc3ccc(-c4ccccc4)cc3)c2n1	13.3
Nc1nc(Nc2cccc(Br)c2)c2ccn(Cc3ccc(Cl)cc3)c2n1	16.1
Nc1nc(Nc2cccc(Br)c2)c2ccn(Cc3ccc(Cl)c(Cl)c3)c2n1	19.2
Nc1nc(Nc2cccc(Br)c2)c2ccn(Cc3ccc(Cl)cc3Cl)c2n1	15.3
Nc1nc(Nc2cccc(Br)c2)c2ccn(Cc3cccc4ccccc34)c2n1	36.3
COc1cc(Cn2ccc3c(Nc4cccc(Br)c4)nc(N)nc32)cc(OC)c1OC	39
Cc1ccccc1Cn1ccc2c(Nc3cccc(Br)c3)nc(N)nc21	15.7
COc1ccc(OC)c(Cn2ccc3c(Nc4cccc(Br)c4)nc(N)nc32)c1	40.6
Nc1nc(Nc2cccc(Br)c2)c2ccn(Cc3ccc4ccccc4c3)c2n1	20.4
